Experimental findings from patent US20140249147A1, “Substituted Bicyclic Aza-Heterocycles and Analogues as Sirtuin Modulators” (GlaxoSmithKline, LLC, priority 2011, published 2014) are described below.

The structures appear in SMILES notation. Where only a bound is given, the exact number is not on record here.

For this assay, the target named is T1, SIRT1 (Homo sapiens, UniProt Q96EB6).
T1 sequence (Q96EB6 1-747): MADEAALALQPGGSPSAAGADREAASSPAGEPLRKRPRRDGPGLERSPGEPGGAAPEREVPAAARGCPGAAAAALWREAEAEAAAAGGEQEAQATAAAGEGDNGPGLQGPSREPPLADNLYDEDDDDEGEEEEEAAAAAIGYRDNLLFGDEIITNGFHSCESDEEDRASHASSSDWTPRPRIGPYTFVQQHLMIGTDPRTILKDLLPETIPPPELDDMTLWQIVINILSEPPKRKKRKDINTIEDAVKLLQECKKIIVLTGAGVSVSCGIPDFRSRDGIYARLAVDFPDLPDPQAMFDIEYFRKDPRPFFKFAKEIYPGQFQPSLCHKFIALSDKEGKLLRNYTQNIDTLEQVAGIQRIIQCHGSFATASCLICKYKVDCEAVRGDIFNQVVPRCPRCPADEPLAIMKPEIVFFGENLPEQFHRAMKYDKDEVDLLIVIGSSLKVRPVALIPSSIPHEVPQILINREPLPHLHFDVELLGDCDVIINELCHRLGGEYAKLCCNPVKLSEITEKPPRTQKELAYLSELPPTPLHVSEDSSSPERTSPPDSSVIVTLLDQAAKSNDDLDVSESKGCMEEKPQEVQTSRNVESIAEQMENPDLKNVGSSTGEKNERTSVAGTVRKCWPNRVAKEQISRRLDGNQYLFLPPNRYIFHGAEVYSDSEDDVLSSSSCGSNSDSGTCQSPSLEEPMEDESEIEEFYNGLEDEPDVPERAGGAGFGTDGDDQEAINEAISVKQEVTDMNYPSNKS
The assay can be described thus: TAMRA based mass spectrometry assay of SIRT1 activation. In kind it is biochemical. The following applies: TAMRA peptide substrate; for Emax: 25 min, percent maximum fold activation relative to control (100%), read-out: TAMRA % Fold Act; for TAMRA EC1.5 (μM): concentration giving 150% activation of SIRT1. The text has this:
Mass spectrometry based assays were used to identify modulators of SIRT1 activity. The TAMRA based assay utilized a peptide having 20 amino acid residues as follows: Ac-EE-K(biotin)-GQSTSSHSK(Ac)NleSTEG-K(5TMR)-EE-NH2 (SEQ ID NO: 1), wherein K(Ac) is an acetylated lysine residue and Nle is a norleucine. The peptide was labeled with the fluorophore 5TMR (excitation 540 nm/emission 580 nm) at the C-terminus. The sequence of the peptide substrate was based on p53 with several modifications. In addition, the methionine residue naturally present in the sequence was replaced with the norleucine because the methionine may be susceptible to oxidation during synthesis and purification. The Trp based assay utilized a peptide having an amino acid residues as follows: Ac—R—H—K—K(Ac)—W—NH2 (SEQ ID NO: 2).
The TAMRA based mass spectrometry assay was conducted as follows: 0.5 μM peptide substrate and 120 μM βNAD^+ was incubated with 10 nM SIRT1 for 25 minutes at 25° C. in a reaction buffer (50 mM Tris-acetate pH 8, 137 mM NaCl, 2.7 mM KCl, 1 mM MgCl2, 5 mM DTT, 0.05% BSA). The SIRT1 protein was obtained by cloning the SirT1 gene into a T7-promoter containing vector, which was then transformed and expressed in BL21(DE3) bacterial cells. Test compound was added at varying concentrations to this reaction mixture and the resulting reactions were monitored. After the 25 minute incubation with SIRT1, 10 μL of 10% formic acid was added to stop the reaction. The resulting reactions were sealed and frozen for later mass spec analysis. Determination of the amount of deacetylated substrate peptide formed (or, alternatively, the amount of O-acetyl-ADP-ribose (OAADPR) generated) by the sirtuin-mediated NAD-dependent deacetylation reaction allowed for the precise measurement of relative SIRT1 activity in the presence of varying concentrations of the test compound versus control reactions lacking the test compound.
A control for inhibition of sirtuin activity was conducted by adding 1 μL of 500 mM nicotinamide as a negative control at the start of the reaction (e.g., permits determination of maximum sirtuin inhibition). A control for activation of sirtuin activity was conducted using 10 nM of sirtuin protein, with 1 μL of DMSO in place of compound, to determine the amount of deacetylation of the substrate at a given time point within the linear range of the assay. This time point was the same as that used for test compounds and, within the linear range, the endpoint represents a change in velocity. For the above assay, SIRT1 protein was expressed and purified as follows. The SirT1 gene was cloned into a T7-promoter containing vector and transformed into BL21(DE3). The protein was expressed by induction with 1 mM IPTG as an N-terminal His-tag fusion protein at 18° C. overnight and harvested at 30,000×g. Cells were lysed with lysozyme in lysis buffer (50 mM Tris-HCl, 2 mM Tris[2-carboxyethyl]phosphine (TCEP), 10 μM ZnCl2, 200 mM NaCl) and further treated with sonication for 10 min for complete lysis. The protein was purified over a Ni-NTA column (Amersham) and fractions containing pure protein were pooled, concentrated and run over a sizing column (Sephadex S200 26/60 global). The peak containing soluble protein was collected and run on an Ion-exchange column (MonoQ). Gradient elution (200 mM-500 mM NaCl) yielded pure protein. This protein was concentrated and dialyzed against dialysis buffer (20 mM Tris-HCl, 2 mM TCEP) overnight. The protein was aliquoted and frozen at −80° C. until further use.
Sirtuin-modulating compounds of Formula (I) that activated SIRT1 were identified using the assay described above and are shown below in Table 1. The EC1.5 values represent the concentration of test compounds that result in 150% activation of SIRT1. The EC1.5 values for the activating compounds of Formula (I) are represented by A (EC1.5<1 μM), B (EC1.5 1-25 μM), C (EC1.5>25 μM). […]

On to `Cn1ccc(C(=O)Nc2ccc3ncc(-c4cccc(C(F)(F)F)c4)n3n2)n1` [Compound 40], for which the Emax was less than 350% and the “TAMRA EC1.5 (μM)” value was “C (EC1.5>25 μM)”. Turning to `O=C(Nc1ccc2ncc(-c3cccc(F)c3)n2n1)c1cnccn1` [Compound 20], the Emax is less than 350% and the “TAMRA EC1.5 (μM)” value is “B (EC1.5 1-25 μM)”. `CS(=O)(=O)c1cccc(-c2nnc3ccc(C(=O)Nc4nccs4)nn23)c1` [Compound 42]: the Emax is less than 350% and the “TAMRA EC1.5 (μM)” value was “C (EC1.5>25 μM)”. As for `O=C(Nc1ccccn1)c1ccc2nnc(-c3cccc(C(F)(F)F)c3)n2n1` [Compound 3], the “TAMRA EC1.5 (μM)” value was “C (EC1.5>25 μM)”.

As for `Cn1ccc(C(=O)Nc2ccc3ncc(-c4cccc(F)c4)n3n2)n1` [Compound 43], the Emax is less than 350% and the “TAMRA EC1.5 (μM)” value is reported as “C (EC1.5>25 μM)”. `O=C(Nc1ccccn1)c1ccc2nnc(-c3cccc(OC(F)(F)F)c3)n2n1` [Compound 2]: the Emax is less than 350% and the “TAMRA EC1.5 (μM)” value is “C (EC1.5>25 μM)”. For `O=C(Nc1ccc2ncc(-c3ccccc3F)n2n1)c1cnccn1` [Compound 13] the same measures were less than 350% and “C (EC1.5>25 μM)”. For the compound `O=C(Nc1cccc(C(F)(F)F)n1)c1ccc2nnc(-c3cccc(F)c3)n2n1` [Compound 7], the Emax was less than 350%. In the case of `O=C(Nc1ccc2ncc(-c3ccccc3F)n2n1)c1ncccn1` [Compound 25], the Emax was less than 350% and the “TAMRA EC1.5 (μM)” value is “B (EC1.5 1-25 μM)”. For `O=C(Nc1ccc2ncc(-c3cccc(Cl)c3)n2n1)c1nccs1` [Compound 27] the same measures were less than 350% and “B (EC1.5 1-25 μM)”. Turning to `O=C(Nc1ccc2ncc(-c3cccc(Cl)c3)n2n1)c1cnccn1` [Compound 34], the Emax was less than 350% and the “TAMRA EC1.5 (μM)” value was “A (EC1.5<1 μM)”.

Turning to `O=C(Nc1cccc(C(F)(F)F)n1)c1ccc2ncc(-c3ccccc3F)n2n1` [Compound 9], the Emax is less than 350% and the “TAMRA EC1.5 (μM)” value was “B (EC1.5 1-25 μM)”. For `O=C(Nc1ccc2ncc(-c3cccc(C(F)(F)F)c3)n2n1)c1ccccn1` [Compound 31] the same measures were less than 350% and “B (EC1.5 1-25 μM)”.

Regarding `O=C(Nc1cccc(N2CCOCC2)n1)c1ccc2ncc(-c3ccccc3F)n2n1` [Compound 32], the Emax was less than 350% and the “TAMRA EC1.5 (μM)” value is on record as “C (EC1.5>25 μM)”.

As to `O=C(Nc1ccc2ncc(-c3cccc(F)c3)n2n1)c1ccccn1` [Compound 28], the Emax is less than 350% and the “TAMRA EC1.5 (μM)” value was “B (EC1.5 1-25 μM)”.

As for `O=C(Nc1nccs1)c1ccc2nnc(-c3cccc(C(F)(F)F)c3)n2n1` [Compound 49], the Emax was less than 350% and the “TAMRA EC1.5 (μM)” value is “C (EC1.5>25 μM)”. The like results for `O=C(Nc1ccc2ncc(-c3cccc(F)c3)n2n1)c1nccs1` [Compound 17] were, in that order, less than 350% and “B (EC1.5 1-25 μM)”. Turning to `O=C(Nc1ccc2ncc(-c3cccc(Cl)c3)n2n1)c1ccccn1` [Compound 30], the Emax is less than 350% and the “TAMRA EC1.5 (μM)” value is listed as “B (EC1.5 1-25 μM)”.

In the case of `Cn1ccc(C(=O)Nc2ccc3ncc(-c4ccccc4Cl)n3n2)n1` [Compound 45], the Emax was less than 350% and the “TAMRA EC1.5 (μM)” value was “C (EC1.5>25 μM)”. The like results for `O=C(Nc1ccc2ncc(-c3cccc(Cl)c3)n2n1)c1ncccn1` [Compound 37] were, in that order, less than 350% and “B (EC1.5 1-25 μM)”. As for `O=C(Nc1ccc2ncc(-c3ccccc3Cl)n2n1)c1ccccn1` [Compound 41], the Emax was less than 350% and the “TAMRA EC1.5 (μM)” value is “C (EC1.5>25 μM)”. The like results for `O=C(Nc1ccnc(C(F)(F)F)c1)c1ccc2ncc(-c3ccccc3Cl)n2n1` [Compound 29] were, in that order, less than 350% and “B (EC1.5 1-25 μM)”.

Turning to `O=C(Nc1cccc(N2CCOCC2)n1)c1ccc2ncc(-c3cccc(Cl)c3)n2n1` [Compound 46], the Emax was less than 350% and the “TAMRA EC1.5 (μM)” value is listed as “B (EC1.5 1-25 μM)”. Consider `O=C(Nc1ccc2ncc(-c3ccccc3Cl)n2n1)c1nccs1` [Compound 24], for which the Emax is less than 350% and the “TAMRA EC1.5 (μM)” value is reported as “B (EC1.5 1-25 μM)”. For `O=C(Nc1ccnc(C2CCOCC2)c1)c1ccc2ncc(-c3cccc(C(F)(F)F)c3)n2n1` [Compound 47] the same measures were no less than 350% and “A (EC1.5<1 μM)”. For `O=C(Nc1ccc2ncc(-c3ccccc3Cl)n2n1)c1ncccn1` [Compound 33] the same measures were no less than 350% and “A (EC1.5<1 μM)”. For `O=C(Nc1ccnc(C(F)(F)F)c1)c1ccc2ncc(-c3cccc(F)c3)n2n1` [Compound 50] the same measures were less than 350% and “C (EC1.5>25 μM)”.

Regarding `Cn1ccc(C(=O)Nc2ccc3ncc(-c4ccccc4F)n3n2)n1` [Compound 36], the Emax is less than 350% and the “TAMRA EC1.5 (μM)” value was “A (EC1.5<1 μM)”. For the compound `O=C(Nc1ccc(F)cn1)c1ccc2ncc(-c3cccc(C(F)(F)F)c3)n2n1` [Compound 11], the Emax is less than 350% and the “TAMRA EC1.5 (μM)” value is given as “B (EC1.5 1-25 μM)”.

With `O=C(Nc1ccnc(C(F)(F)F)c1)c1ccc2ncc(-c3ccccc3F)n2n1` [Compound 12], the Emax is less than 350% and the “TAMRA EC1.5 (μM)” value is listed as “B (EC1.5 1-25 μM)”. With `Cn1ccc(C(=O)Nc2ccc3ncc(-c4cccc(Cl)c4)n3n2)n1` [Compound 35], the Emax is less than 350% and the “TAMRA EC1.5 (μM)” value was “A (EC1.5<1 μM)”.
